Data taken from a compilation of properties of binary mixtures (doi:10.1016/j.molliq.2022.119209).

Experiment: xn = mol fraction of the nth substance listed
Settings: 100 kPa

O + CC(N)C(=O)[O-].CCCC[n+]1ccn(C)c1C
x2 = 0
Settings | viscosity [mPa·s]
288.15 K | 1.17
293.15 K | 1.03
303.15 K | 0.82
308.15 K | 0.74

O + CCCC[n+]1ccn(C)c1C.NCC(=O)[O-]
x2 = 0
Settings | viscosity [mPa·s]
288.15 K | 1.17
293.15 K | 1.03
298.15 K | 0.91
303.15 K | 0.82
318.15 K | 0.61

O + N[C@@H]([C@H](O)C)C(=O)[O-].C(CCC)N1C(=[N+](C=C1)C)C
x2 = 0
Settings | viscosity [mPa·s]
288.15 K | 1.17
298.15 K | 0.91
303.15 K | 0.82
308.15 K | 0.74
318.15 K | 0.61

CC(N)C(=O)[O-].CCCC[n+]1ccn(C)c1C + O
viscosity [mPa·s]
Settings | x1 = 0.1003 | x1 = 0.2012 | x1 = 0.3009 | x1 = 0.4014 | x1 = 0.4938 | x1 = 0.5975 | x1 = 0.6987 | x1 = 0.7945 | x1 = 0.8965 | x1 = 1
288.15 K | 28.4 | 52 | 86 | 127 | 168 | 215 | 270 | 336 | 429 | 520
293.15 K | – | 40 | 64 | 95 | 126 | 161 | – | 244 | 307 | –
298.15 K | 17.1 | 30.5 | 48.9 | 72 | 96 | 123 | 151 | 183 | 226 | 268
303.15 K | 12.8 | 23.3 | 36.8 | 54 | 72 | 92 | 113 | 136 | 165 | 192
308.15 K | 10.6 | 19 | 30 | 44 | 58 | 75 | 92 | 110 | 131 | 150
313.15 K | 8.1 | 14.7 | 23 | 33.5 | 44.2 | 57 | – | 82 | 97 | 110
318.15 K | 6.7 | 12.1 | – | 27.5 | 36.3 | 46.7 | 57 | 67 | 77 | –

CCCC[n+]1ccn(C)c1C.NCC(=O)[O-] + O
viscosity [mPa·s]
Settings | x1 = 0.0999 | x1 = 0.1982 | x1 = 0.3003 | x1 = 0.3904 | x1 = 0.4786 | x1 = 0.6 | x1 = 0.6999 | x1 = 0.798 | x1 = 0.9001 | x1 = 1
288.15 K | 25.2 | 40.3 | 63 | 92 | 125 | 180 | 232 | 298 | 390 | 480
293.15 K | 18.2 | 29.1 | 45.4 | – | 90 | 129 | 163 | 205 | 257 | 318
298.15 K | – | – | – | 49.1 | 67 | – | – | – | 178 | 218
303.15 K | 10.4 | 17.3 | 26.7 | 37.7 | 51 | 71 | 88 | 105 | – | 152
308.15 K | – | 13.1 | – | – | 38.3 | 53 | – | 77 | 90 | 109
313.15 K | 6.3 | 10.8 | 16.6 | – | 31.2 | 43.1 | 53 | 62 | – | 84
318.15 K | 5.7 | 9.6 | 14.7 | 20.5 | 27.5 | 38.1 | – | – | 61 | 72

CCCCn1cc[n+](C)c1C.C[C@@H](O)[C@H](N)C(=O)[O-] + O
viscosity [mPa·s]
Settings | x1 = 0.0998 | x1 = 0.1919 | x1 = 0.2985 | x1 = 0.4004 | x1 = 0.4927 | x1 = 0.599 | x1 = 0.7003 | x1 = 0.8001 | x1 = 0.9012 | x1 = 1
288.15 K | 57 | 84 | 141 | 228 | – | 470 | 650 | 880 | 1181 | 1472
293.15 K | 40.4 | 61 | – | 164 | 236 | 331 | – | 600 | 780 | 960
298.15 K | 28.7 | 44 | 73 | 115 | 164 | 231 | – | – | 510 | 610
303.15 K | 18.1 | 28.7 | 47.4 | 74 | 105 | 145 | 191 | 245 | 310 | 363
308.15 K | 15.6 | – | 40.6 | – | 89 | – | 159 | – | 245 | 285
313.15 K | 9.8 | 15.8 | – | 40.6 | 57 | – | 100 | 122 | 145 | 167
318.15 K | 8 | 13.1 | – | – | – | 62 | – | – | 107 | 125
